This is an account of results in US7776558B2, “Human G protein-coupled receptor and modulators thereof for the treatment of cell death-related disorders” (Arena Pharmaceuticals, Inc., priority 2003, dated 2010).

Test [1] relates to differentiated SH-SY5Y cells. Description: Aβ-induced cell death of differentiated SH-SY5Y cells. The test is classed as cell-based, human. The conditions noted are these: AB1-42 80 μg/ml; Humanin 1 μM; Compound 1 20 μM, 5 μM or 1 μM; Trypan Blue staining; FIG. 12. Here is the method:
SH-SY5Y is a human neuroblastoma cell line. Differentiation of SH-SY5Y into neuronal-like cells was carried out by treatment with retinoic acid (10 μM) for five days followed by treatment with BDNF (10 ng/ml) for two days. Aβ (AB1-42) was purchased from Biosource International (Camarillo, Calif.; catalog no. 03-111).
The assay was carried out in serum-free medium. AB1-42 was used at 80 μg/ml. […] Compound 1 was used at either 20 μM, 5 μM or 1 μM.
Cell survival was determined by Trypan Blue staining.

A further test has as its target T1, FPRL1 (Homo sapiens, UniProt P25090).
T1 sequence (P25090 1-351): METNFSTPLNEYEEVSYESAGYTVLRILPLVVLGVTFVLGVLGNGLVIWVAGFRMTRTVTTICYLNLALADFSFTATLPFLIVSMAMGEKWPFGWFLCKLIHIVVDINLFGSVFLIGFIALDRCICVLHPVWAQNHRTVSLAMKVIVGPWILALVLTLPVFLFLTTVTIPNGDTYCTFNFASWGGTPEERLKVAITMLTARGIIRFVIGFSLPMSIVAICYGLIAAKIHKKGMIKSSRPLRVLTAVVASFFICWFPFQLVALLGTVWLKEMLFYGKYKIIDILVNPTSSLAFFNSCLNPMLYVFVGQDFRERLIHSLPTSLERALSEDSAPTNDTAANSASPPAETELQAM
Description: Whole cell adenylate cyclase (cAMP) assay, stably transfected HEK293 cells. Type of test: cell-based. Conditions: in the presence of 5 μM forskolin, FIG. 6. An excerpt: A Flash Plate™ Adenylyl Cyclase kit (New England Nuclear; Cat. No. SMP004A) designed for cell-based assays can be modified for use with crude plasma membranes. The Flash Plate wells can contain a scintillant coating which also contains a specific antibody recognizing cAMP. The cAMP generated in the wells can be quantitated by a direct competition for binding of radioactive cAMP tracer to the cAMP antibody. The following serves as a brief protocol for the measurement of changes in cAMP levels in whole cells that express the receptors.
Transfected cells are harvested approximately twenty four hours after transient transfection. Media is carefully aspirated off and discarded. 10 ml of PBS is gently added to each dish of cells followed by careful aspiration. 1 ml of Sigma cell dissociation buffer and 3 ml of PBS are added to each plate. Cells are pipetted off the plate and the cell suspension is collected into a 50 ml conical centrifuge tube. Cells are then centrifuged at room temperature at 1,100 rpm for 5 min. The cell pellet is carefully re-suspended into an appropriate volume of PBS (about 3 ml/plate). The cells are then counted using a hemocytometer and additional PBS is added to give the appropriate number of cells (with a final volume of about 50 μl/well). […]
In FIG. 6, agonist activity was determined through adenylate cyclase activity. […] Samples were then assessed for the level of intracellular cAMP as described in Example 4, supra.

“Also recorded” adds a separate entry of the source. Where no end group is shown, it is not given here.

Take `CC(C)c1ccc2c(c1)CCC1C(C)(C(N)=O)CCCC21C` (centres unmarked) [Compound 1, 7-Isopropyl-1,4a-dimethyl-1,2,3,4,4a,9,10,10a-octahydro-phenanthrene-1-carboxylic acid amide]: the “Protection from Aβ-induced cell death” value in test [1] was “protect differentiated SH-SY5Y cells from Aβ-induced cell death”.

With `CC[C@H](C)[C@H](NC(=O)[C@H](CCC(=O)O)NC(=O)[C@H](CO)NC(=O)[C@@H](NC(=O)[C@H](CC(C)C)NC(=O)[C@H](CC(C)C)NC(=O)[C@H](CC(C)C)NC(=O)[C@H](CC(C)C)NC(=O)[C@H](CS)NC(=O)[C@H](CO)NC(=O)[C@H](Cc1ccccc1)NC(=O)CNC(=O)[C@H](CCCNC(=N)N)NC(=O)[C@@H]1CCCN1C(=O)[C@H](C)NC(=O)[C@@H](N)CCSC)[C@@H](C)O)C(=O)N[C@@H](CC(=O)O)C(=O)N[C@@H](CC(C)C)C(=O)N1CCC[C@H]1C(=O)N[C@H](C(=O)N[C@@H](CCCCN)C(=O)N[C@@H](CCCNC(=N)N)C(=O)N[C@@H](CCCNC(=N)N)C(=O)N[C@@H](C)C(=O)O)C(C)C` [Humanin], the “Agonist activity at FPRL1, intracellular cAMP” value at FPRL1 was “agonists of both FPRL1 and FPRL2”; at FPRL1 (listed as Human), “agonists of both FPRL2 and FPRL1”. In test [1], the “Protection from Aβ-induced cell death” value is “protect differentiated SH-SY5Y cells from Aβ-induced cell death”.

Take “MAPRGFSCLLLLTGEIDLPVKRRA [[Gly14]-Humanin]”: at FPRL1, the “Agonist activity at FPRL1, intracellular cAMP” value was “agonists of both FPRL1 and FPRL2; also recorded: agonists of both FPRL2 and FPRL1”.
